The numbers were not newly measured in patent publication US5268391A, “Propargyl-terminated cycloalkylalkyl-P2-site substituted aryl/alkylsulfonyl-terminated alanine amino-diol compounds for treatment of hypertension” (C. D. Searle & Co., priority 1992, dated 1993), which cites them from elsewhere.

This data set relates to hog renin. As to conditions: after the injection of hog renin into nephrectomized rats.

Where a SMILES comes first, the peptide text is derived from it. [ ]: non-standard residue; d: D form. The star is where a group is joined. Sta = CC(C)C[C@H](N)[C@@H](O)CC(=O)O; Isovaleryl = CC(C)CC(=O)*

Regarding `CC(C)CC(=O)N[C@H](C(=O)N[C@H](C(=O)N[C@@H](CC(C)C)[C@@H](O)CC(=O)N[C@@H](C)C(=O)N[C@@H](CC(C)C)[C@@H](O)CC(=O)O)C(C)C)C(C)C` [pepstatin] (Isovaleryl-VV[Sta]A[Sta]-OH), the “blood pressure in vivo” value was “reduce blood pressure”.
